This note sets out measurements from article PMC5291322, “Development of Cell‐Permeable, Non‐Helical Constrained Peptides to Target a Key Protein–Protein Interaction in Ovarian Cancer” (Angewandte Chemie (International Ed. in English), 2016).

The structures appear in SMILES notation. Non-standard residues stand in square brackets, D forms with d. Residues, ends and D or L forms follow the SMILES beside them. *: point of attachment. 5TAMRA = CN(C)c1ccc2c(c1)Oc1cc(N(C)C)ccc1C21OC(=O)c2cc(C(=O)*)ccc21; Dap(N3) = [N-]=[N+]=NC[C@H](N)C(=O)O; Aha = [N-]=[N+]=NCC[C@H](N)C(=O)O; Ahx = NCCCCCC(=O)O

One series concerns JHOC9 cells. Briefly: Cell permeability assay, live-cell confocal fluorescence microscopy. Format: cell-based. The note with it: 10 μM TAMRA-labelled peptide in medium, 2 h incubation, Hoechst 33342 in the final 30 min, PBS wash, TAMRA fluorescence read-out, qualitative. From the text: Live‐cell fluorescence microscopy studies were undertaken to assess the cell permeability of the synthesized TAMRA‐labelled linear and constrained peptides (Figure 7).
Figure 7 Cell‐permeability studies for the linear and constrained peptides using JHOC9 cells. Images were taken on a Leica tandem confocal microscope using a 40 X objective.
HEK293T cells were cultivated in Dulbecco’s Modified Eagle medium (DMEM) (1X) supplemented with 5 % foetal bovine serum (FBS) (Invitrogen) and 0.5 % penicillin/streptomycin (P/S). CCC cell lines PEO1, JHOC5, JHOC7, JHOC9, OVISE, SKOV3 and Normal Ovarian Surface Epithelial (IOSE) cells were grown in RPMI 1640 medium (1X) supplemented with 10 % FBS and 1 % P/S. All cell lines were maintained at 37 °C in 5 % CO2 and were mycoplasma tested on a regular basis (Biorepository Core, CRUK CI, Cambridge). Cell counts were conducted using the Vi-CELL Cell Viability Analyzer. […]
Cell permeability assay and confocal microscopy
Cells were grown in chambered coverslips (μ–Slide 8 Well ibiTreat, Ibidi) for live-cell imaging. When the desired degree of confluency was reached, the medium was replaced with 10 μM solutions of constrained peptides in medium. For live-cell imaging, cells were incubated with the constrained peptide solutions for 2 h and during the final 30 min, Hoechst stain 33342 (1 μM, Thermo Fisher Scientific) was added. Cells were washed with PBS before live-cell imaging. Fresh medium was added and cells were imaged live using a Leica Tandem confocal microscope. Images were generated as a maximum intensity projection of five z-stacked […]
Aldrich, Mission RNAi, TRC2-pLKO-puro Vector) were used. All plasmids were confirmed by restriction digest and agarose gel electrophoresis.
For each transfection sample 16 μg transfer vector, 10.4 μg pMDL/pRRE, 4 μg pRSV-Rev and 5.6 μg pVSV-G were used. Lentiviruses were produced in the HEK293T packaging cell line. The day before transfection, 16 x 10^6 HEK293T cells were plated in […] (Corning) using Opti-MEM reduced-serum medium (30 mL, 1 X, Invitrogen) so that cells were 90–95 % confluent on the day of transfection. After 24 h the medium was removed and replaced with DMEM growth medium (16 mL, Invitrogen) containing serum. For each transfection sample DNA-Lipofectamine complexes were prepared as follows: In a sterile 15 mL tube, 16 μg transfer vector, 10.4 μg pMDL/pRRE, 4 μg pRSV-REV and 5.6 μg pVSV-G were diluted in Opti-MEM medium (5 mL). In a separate sterile 15 mL tube, Lipofectamine 2000 (115 μL, Life Technologies) was diluted in Opti-MEM medium (5 mL). Both solutions were incubated for 5 min at room temperature and then combined.
Incubation for 20 min at room temperature allowed DNA-Lipofectamine complexes to form, which were then added dropwise to each plate of HEK293T cells. […]

A further series addresses T1, mImportin α1 ΔIBB (Mus musculus, UniProt P52293).
T1 construct: made in house; host or cells: E. coli BL21 (DE3) CodonPlus-RIL
Nature of the series: Direct fluorescence polarisation (FP) binding assay. Particulars: 60 nM TAMRA-labelled peptide, 15-point 2.0-fold serial dilutions of mImportin α1 ΔIBB, 20 mM HEPES pH 8, 200 mM NaCl, 15 min at room temperature, ex 540/em 590 nm, one-site model, triplicates, read-out: Kd, direct FP assay binding affinity. Here is the method: The unconstrained peptides Pep1 and Pep2, as well as four constrained peptides, were synthesized. Their binding affinities for mImportin α1 ΔIBB were evaluated in fluorescence polarization assays (Figure 5 C). […]
Direct Fluorescence Polarisation Assay
Dissociation constants (Kd) for the interaction of TAMRA-5-labelled stapled peptides with mImportin α1 ΔIBB were determined by direct fluorescence polarisation (FP) measurement. TAMRA-5 belongs to the family of rhodamine dyes and has been used extensively for the study of PPIs and DNA-protein interactions by FP assays.[31-32] The mImportin α1 ΔIBB isoform was used since it is well characterised and has been used previously.[33] A one-site binding model was assumed with mImportin α1. mImportin α1 ΔIBB protein was purified in FP buffer (20 mM HEPES (pH 8), 200 mM NaCl) and 1 mM stock solutions of peptides were made up in FP buffer with 3 % v/v DMSO. Accurate mImportin α1 ΔIBB and stapled peptide concentrations were determined by amino acid analysis (PNAC facilities, Department of Biochemistry, University of Cambridge). 15-point dose-response curves were constructed using 2.0-fold serial dilutions of mImportin α1 ΔIBB in a mixture with a final concentration of 60 nM TAMRA-labelled peptide. 20 μL reaction volumes were pipetted into […] black polystyrene assay plates (Corning 384 Well Low Flange Black Flat

On to `CSCC[C@@H]1NC(=O)[C@H](CCCCN)NC(=O)[C@H](CCCCN)NC(=O)[C@@H](NC(=O)[C@@H](NC(=O)CCCCCNC(=O)c2ccc3c(c2)C(=O)OC32c3ccc(N(C)C)cc3Oc3cc(N(C)C)ccc32)[C@@H](C)O)CCn2cc(nn2)CNC(=O)NCc2cn(nn2)CC[C@@H](C(=O)N[C@@H](CCCNC(=N)N)C(N)=O)NC(=O)[C@H](CCCNC(=N)N)NC(=O)[C@H](CCCNC(=N)N)NC1=O` [Pep2A], for which the cell permeability entry in the series with JHOC9 cells is “retained their cell permeability”. At mImportin α1 ΔIBB, the Kd was 4.54 µM.

Consider `CSCC[C@@H]1NC(=O)[C@H](CCCCN)NC(=O)[C@H](CCCCN)NC(=O)[C@@H](NC(=O)[C@@H](NC(=O)CCCCCNC(=O)c2ccc3c(c2)C(=O)OC32c3ccc(N(C)C)cc3Oc3cc(N(C)C)ccc32)[C@@H](C)O)Cn2cc(nn2)CCCNC(=O)NCCCc2cn(nn2)C[C@@H](C(=O)N[C@@H](CCCNC(=N)N)C(N)=O)NC(=O)[C@H](CCCNC(=N)N)NC(=O)[C@H](CCCNC(=N)N)NC1=O` [Pep1C], for which the Kd at mImportin α1 ΔIBB is 55.9 ± 2.43 µM. The same measure, in the same setting: the result for `CN(C)c1ccc2c(-c3ccc(C(=O)O)cc3C(=O)[O-])c3ccc(N(C)C)cc3[o+]c2c1` [TAMRA-5, 5-CARBOXYTETRAMETHYLRHODAMINE, reference compound] reads around 122 µM. In the case of `CSCC[C@@H]1NC(=O)[C@H](CCCCN)NC(=O)[C@H](CCCCN)NC(=O)[C@@H](NC(=O)[C@@H](NC(=O)CCCCCNC(=O)c2ccc3c(c2)C(=O)OC32c3ccc(N(C)C)cc3Oc3cc(N(C)C)ccc32)[C@@H](C)O)Cn2cc(nn2)CCNC(=O)NCCc2cn(nn2)C[C@@H](C(=O)N[C@@H](CCCNC(=N)N)C(N)=O)NC(=O)[C@H](CCCNC(=N)N)NC(=O)[C@H](CCCNC(=N)N)NC1=O` [Pep1B], the cell permeability entry in the series on JHOC9 cells is “retained their cell permeability”. Besides, the dissociation constant (Kd) at mImportin α1 ΔIBB amounted to 48.2 ± 4.88 µM. With `CSCC[C@@H]1NC(=O)[C@H](CCCCN)NC(=O)[C@H](CCCCN)NC(=O)[C@@H](NC(=O)[C@@H](NC(=O)CCCCCNC(=O)c2ccc3c(c2)C(=O)OC32c3ccc(N(C)C)cc3Oc3cc(N(C)C)ccc32)[C@@H](C)O)Cn2cc(nn2)CNC(=O)NCc2cn(nn2)C[C@@H](C(=O)N[C@@H](CCCNC(=N)N)C(N)=O)NC(=O)[C@H](CCCNC(=N)N)NC(=O)[C@H](CCCNC(=N)N)NC1=O` [Pep1A], on mImportin α1 ΔIBB, the Kd amounted to 95.9 ± 27.3 µM.

As for `CSCC[C@H](NC(=O)[C@H](CCCCN)NC(=O)[C@H](CCCCN)NC(=O)[C@H](CN=[N+]=[N-])NC(=O)[C@@H](NC(=O)CCCCCNC(=O)c1ccc2c(c1)C(=O)OC21c2ccc(N(C)C)cc2Oc2cc(N(C)C)ccc21)[C@@H](C)O)C(=O)N[C@@H](CCCNC(=N)N)C(=O)N[C@@H](CCCNC(=N)N)C(=O)N[C@@H](CN=[N+]=[N-])C(=O)N[C@@H](CCCNC(=N)N)C(N)=O` [Pep1] ({5TAMRA-Ahx}-T[Dap(N3)]KKMRR[Dap(N3)]R-NH2), the cell permeability entry in the series on JHOC9 cells is given as “good cell permeability”. The Kd at mImportin α1 ΔIBB was found to be 2.06 ± 0.07 µM. On to `CSCC[C@H](NC(=O)[C@H](CCCCN)NC(=O)[C@H](CCCCN)NC(=O)[C@H](CCN=[N+]=[N-])NC(=O)[C@@H](NC(=O)CCCCCNC(=O)c1ccc2c(c1)C(=O)OC21c2ccc(N(C)C)cc2Oc2cc(N(C)C)ccc21)[C@@H](C)O)C(=O)N[C@@H](CCCNC(=N)N)C(=O)N[C@@H](CCCNC(=N)N)C(=O)N[C@@H](CCN=[N+]=[N-])C(=O)N[C@@H](CCCNC(=N)N)C(N)=O` [Pep2] ({5TAMRA-Ahx}-T[Aha]KKMRR[Aha]R-NH2), for which the cell permeability entry in the series on JHOC9 cells is listed as “good cell permeability”. Also, the equilibrium dissociation constant (Kd) on mImportin α1 ΔIBB amounted to 6.84 ± 0.26 µM.

As usually defined, the Kd is the equilibrium constant for the complex coming apart.
